In brackets after ≈: the same amount, converted by molar mass.
Key:
[1] = system: S. aureus M126; assay: Antimicrobial activity (minimum inhibitory concentration); type: cell-based; details: Staphylococcus aureus; S. aureus M126, highly meticillin-resistant strain
Experimental: (§1) For representative compounds among the novel carbapenem derivatives of the present invention, the minimum inhibitory concentration (MIC, μg/ml) against various pathogenic bacteria was measured in accordance with a method described in CHEMOTHERAPY, Vol. 16, No. 1, 99 (1968).

[2] = system: K. pneumoniae PCI602; assay: as above; type: cell-based; details: Klebsiella pneumoniae
Experimental: as §1

[3] = system: S. aureus 209P JC-1; assay: as above; type: cell-based; details: Staphylococcus aureus
Experimental: as §1

[4] = system: P. vulgaris GN76; assay: as above; type: cell-based; details: Proteus vulgaris; P. vulgaris GN76; read-out: MIC
Experimental: as §1

[5] = system: E. coli GN206; assay: as above; type: cell-based; details: Escherichia coli
Experimental: as §1

[6] = system: S. marcescens No. 1; assay: as above; type: cell-based; details: Serratia marcescens
Experimental: as §1

[7] = system: M. morganii 1510; assay: as above; type: cell-based; details: Morganella morganii
Experimental: as §1

[8] = system: E. cloacae G-0008; assay: as above; type: cell-based; details: Enterobacter cloacae, G0008
Experimental: as §1

[9] = system: C. freundii GN346; assay: as above; type: cell-based; details: Citrobacter freundii
Experimental: as §1

[10] = system: E. coli NIHJ JC-2; assay: as above; type: cell-based; details: Escherichia coli, NIHJJC2
Experimental: as §1

[11] = system: Ps. aeruginosa GN10362; assay: as above; type: cell-based; details: Pseudomonas aeruginosa; Ps. aeruginosa GN10362; read-out: MIC
Experimental: as §1

[12] = Stability against DHP-I (mouse); type: in vitro ADME; details: kidney dhp-i, 100 μg (potency)/ml, 37° C., pH 7.0, read-out: residue (%) of the carbapenem derivative
Experimental: (§2) The stability of representative compounds, among the novel carbapenem derivatives of the present invention, against kidney dehydropeptidase-I (DHP-I) of a pig and a mouse was measured, and the residue (%) of the carbapenem derivatives three hr after the initiation of the test is summarized in Table 6.
(§3) 1.5 g of a kidney acetone powder (manufactured by Sigma) Porcine Type II (Lot. 33H7225) was suspended in 100 ml of 50 mM Tris-HCl buffer (pH 7.0) containing 20% butanol, and the suspension was stirred at 5° C. for 48 hr. The suspension was then dialyzed against 50 mM Tris-HCl buffer (pH 7.0) (a cellulose tube 30/32 Viskase Sales Corp.) until the odor of butanol disappeared, thereby removing butanol. The dialyzate is centrifuged at 10000×g (KUBOTA 6800) for 20 min, and the supernatant was obtained as a partially purified DHP-I. This partially purified DHP-I was subdivided and stored at -80° C. The above procedure was repeated, except that 1.5 g of Mouse (Lot. 23F8105) was used. Thus, a partially purified DHP-I was prepared and stored.
(§4) For the carbapenem as the substrate agent, a solution (2000 μg (potency)/ml) was prepared using sterilized, purified water. For the sample solution, the carbapenem (2000 μg (potency)/ml) solution was added to the partially purified DHP-I of each animal to a final concentration of 100 μg (potency)/ml). For the blank, 50 mM Tris-HCl buffer (pH 7.0) was used instead of the partially purified DHP-I of each animal. The reaction was allowed to proceed at 37° C. for 3 hr, and a given amount of the reaction mixture was sampled. Methanol in the same amount as the sampled reaction mixture was added under ice cooling to terminate the reaction. The reaction mixture was filtered through a filter (Sanprep LCR 13-LH manufactured by MILLIPORE) and subjected to HPLC (column: CAPCELL PACK C18SG120, manufactured by Shiseido Co., Ltd.; detection: UV; mobile layer: acetonitrile/10 mM aqueous acetic acid solution) to determined the residue (%).
(§5) Residue (%)=(Sample Peak Area/Blank Peak Area)×100

[13] = Stability against DHP-I (pig); type: in vitro ADME; details: kidney dhp-i, 100 μg (potency)/ml, 37° C., pH 7.0, read-out: residue (%) of the carbapenem derivative
Experimental: as §2, §3, §4, §5

| SMILES | MIC [1] | MIC [2] | MIC [3] | MIC [4] | MIC [5] | MIC [6] | MIC [7] | MIC [8] | MIC [9] | MIC [10] | MIC [11] | remaining at 3 h [12] | remaining at 3 h [13] |
| --- | --- | --- | --- | --- | --- | --- | --- | --- | --- | --- | --- | --- | --- |
| C[C@@H](O)[C@H]1C(=O)N2C(C(=O)O)=C(S[C@@H]3CN[C@H](c4csc5c[n+](C)cn45)C3)[C@H](C)[C@H]12 [Ex. 50, (1R,5S,6S)-6-((1R)-1-Hydroxyethyl)-1-methyl-2-[(3S,5S)-5-[(6-methylimidazo[5,1-b]thiazolium)-3-yl]pyrrolidin-3-yl]thiocarbapen-2-em-3-carboxylic acid chloride] | 12.5 µg/mL | 0.1 µg/mL | 0.05 µg/mL | 0.78 µg/mL | 0.05 µg/mL | 0.1 µg/mL | 0.39 µg/mL | 0.05 µg/mL | 0.1 µg/mL | 0.05 µg/mL | 0.78 µg/mL |  |  |
| C[C@@H](O)[C@H]1C(=O)N2C(C(=O)[O-])=C(S[C@@H]3CN[C@H](/C=C\c4csc5c[n+](CCC(N)=O)cn45)C3)[C@H](C)[C@H]12 [Ex. 72, (1R,5S,6S)-2-[(3S,5S)-5-[2(Z)-(6-(2-Carbamoylethyl)imidazo[5,1-b]thiazolium-3-yl)ethenyl]pyrrolidin-3-yl]thio-6-((1R)-1-hydroxyethyl)-1-methylcarbapen-2-em-3-carboxylate] | 6.25 µg/mL (≈ 11.8 µM) | 0.1 µg/mL (≈ 0.188 µM) | < 0.025 µg/mL | 0.78 µg/mL (≈ 1.47 µM) | 0.1 µg/mL (≈ 0.188 µM) | 0.1 µg/mL (≈ 0.188 µM) | 0.39 µg/mL (≈ 0.734 µM) | 0.05 µg/mL (≈ 0.094 µM) | 0.1 µg/mL (≈ 0.188 µM) | 0.05 µg/mL (≈ 0.094 µM) | 1.56 µg/mL (≈ 2.93 µM) |  |  |
| C[C@@H](O)[C@H]1C(=O)N2C(C(=O)O)=C(S[C@@H]3CN[C@H](/C=C/c4cn5c[n+](CC(N)=O)cc5s4)C3)[C@H](C)[C@H]12 [Ex. 53A] | 12.5 µg/mL | 0.1 µg/mL | 0.05 µg/mL | 0.78 µg/mL | 0.1 µg/mL | 0.1 µg/mL | 0.39 µg/mL | 0.1 µg/mL | 0.1 µg/mL | 0.05 µg/mL | 0.78 µg/mL |  |  |
| Cc1n2cc(C[C@@H]3C[C@H](SC4=C(C(=O)O)N5C(=O)[C@H]([C@@H](C)O)[C@H]5[C@H]4C)CN3)sc2c[n+]1CCC(N)=O [Ex. 67, (1R,5S,6S)-2-[(3S,5S)-5-(6-(2-Carbamoylethyl)-5-methylimidazo[5,1-b]thiazolium-2-yl)methylpyrrolidin-3-yl]thio-6-((1R)-1-hydroxyethyl)-1-methylcarbapen-2-em-3-carboxylic acid chloride] | 12.5 µg/mL | 0.1 µg/mL | < 0.025 µg/mL | 0.78 µg/mL | 0.1 µg/mL | 0.39 µg/mL | 0.39 µg/mL | 0.05 µg/mL | 0.05 µg/mL | 0.05 µg/mL | 0.78 µg/mL |  |  |
| C[C@@H](O)[C@H]1C(=O)N2C(C(=O)O)=C(S[C@@H]3CN[C@H](Cc4csc5cncn45)C3)[C@H](C)[C@H]12 [Ex. 20, (1R,5S,6S)-6-((1R)-1-Hydroxyethyl)-2-[(3S,5R)-5-(imidazo[5,1-b]thiazol-3-yl)methylpyrrolidin-3-yl]thio-1-methylcarbapen-2-em-3-carboxylic acid] |  |  |  |  |  |  |  |  |  |  |  | 97% | 100% |
| C[C@@H](O)[C@H]1C(=O)N2C(C(=O)O)=C(S[C@@H]3CN[C@H](C(O)c4cn5c[n+](C)cc5s4)C3)[C@H](C)[C@H]12 (single isomer, unassigned) [Ex. 18] | 12.5 µg/mL | 0.1 µg/mL | < 0.025 µg/mL | 0.39 µg/mL | 0.05 µg/mL | 0.1 µg/mL | 0.2 µg/mL | 0.05 µg/mL | 0.2 µg/mL | 0.05 µg/mL | 3.13 µg/mL |  |  |
| C[C@@H](O)[C@H]1C(=O)N2C(C(=O)O)=C(S[C@@H]3CN[C@H](/C=C\c4cn5c[n+](CCC(N)=O)cc5s4)C3)[C@H](C)[C@H]12 [Ex. 76, (1R,5S,6S)-2-[(3S,5S)-5-[2(Z)-(6-(2-Carbamoylethyl)imidazo[5,1-b]thiazolium-2-yl)ethenyl]pyrrolidin-3-yl]thio-6-((1R)-1-hydroxyethyl)-1-methylcarbapen-2-em-3-carboxylic acid chloride] | 6.25 µg/mL | 0.1 µg/mL | < 0.025 µg/mL | 0.39 µg/mL | 0.1 µg/mL | 0.2 µg/mL | 0.2 µg/mL | 0.05 µg/mL | 0.1 µg/mL | 0.05 µg/mL | 0.78 µg/mL |  |  |
| C[C@@H](O)[C@H]1C(=O)N2C(C(=O)O)=C(S[C@@H]3CN[C@H](C(O)c4csc5cncn45)C3)[C@H](C)[C@H]12 (single isomer, unassigned) [Ex. 6] | 6.25 µg/mL (≈ 13.5 µM) | 0.1 µg/mL (≈ 0.215 µM) | < 0.025 µg/mL | 0.78 µg/mL (≈ 1.68 µM) | 0.1 µg/mL (≈ 0.215 µM) | 0.2 µg/mL (≈ 0.431 µM) | 0.39 µg/mL (≈ 0.839 µM) | 0.1 µg/mL (≈ 0.215 µM) | 0.1 µg/mL (≈ 0.215 µM) | 0.05 µg/mL (≈ 0.108 µM) | 1.56 µg/mL (≈ 3.36 µM) |  |  |
| C[C@@H](O)[C@H]1C(=O)N2C(C(=O)O)=C(S[C@@H]3CN[C@H](C(=O)NCc4n5ccsc5c[n+]4C)C3)[C@H](C)[C@H]12 [Ex. 2, (1R,5S,6S)-6-((1R)-1-Hydroxyethyl)-1-methyl-2-[(3S,5S)-5-[(6-methylimidazo[5,1-b]thiazolium-5-yl)methylaminocarbonyl]pyrrolidin-3-yl]thiocarbapen-2-em-3-carboxylic acid chloride] | 6.25 µg/mL | 0.1 µg/mL | < 0.025 µg/mL | 1.56 µg/mL | 0.05 µg/mL | 0.2 µg/mL | 0.39 µg/mL | 0.1 µg/mL | 0.2 µg/mL | 0.1 µg/mL | 12.5 µg/mL |  |  |
| C[C@@H](O)[C@H]1C(=O)N2C(C(=O)O)=C(S[C@@H]3CN[C@H](/C=C\c4csc5cncn45)C3)[C@H](C)[C@H]12 [Ex. 38, (1R,5S,6S)-6-((1R)-1-Hydroxyethyl)-2-[(3S,5S)-5-[2(Z)-(imidazo[5,1-b]thiazol-3-yl)ethenyl]pyrrolidin-3-yl]thio-1-methylcarbapen-2-em-3-carboxylic acid] | 25 µg/mL (≈ 54.3 µM) | 0.2 µg/mL (≈ 0.434 µM) | 0.1 µg/mL (≈ 0.217 µM) | 1.56 µg/mL (≈ 3.39 µM) | 0.1 µg/mL (≈ 0.217 µM) | 0.2 µg/mL (≈ 0.434 µM) | 0.78 µg/mL (≈ 1.69 µM) | 0.1 µg/mL (≈ 0.217 µM) | 0.2 µg/mL (≈ 0.434 µM) | 0.1 µg/mL (≈ 0.217 µM) | 6.25 µg/mL (≈ 13.6 µM) |  |  |
| C[C@@H](O)[C@H]1C(=O)N2C(C(=O)O)=C(S[C@@H]3CN[C@H](/C=C\c4csc5c[n+](CC(N)=O)cn45)C3)[C@H](C)[C@H]12 [Ex. 54] | 3.13 µg/mL | 0.05 µg/mL | < 0.025 µg/mL | 0.39 µg/mL | 0.05 µg/mL | 0.1 µg/mL | 0.2 µg/mL | < 0.025 µg/mL | 0.05 µg/mL | < 0.025 µg/mL | 1.56 µg/mL |  |  |
| C[C@@H](O)[C@H]1C(=O)N2C(C(=O)O)=C(S[C@@H]3CN[C@H](/C=C\c4cn5c[n+](CC(N)=O)cc5s4)C3)[C@H](C)[C@H]12 [Ex. 53B, (1R,5S,6S)-2-[(3S,5S)-5-[2(Z)-(6-(carbamoylmethyl)imidazo[5,1-b]thiazolium-2-yl)ethenyl]pyrrolidin-3-yl]thio-6-((1R)-1-hydroxyethyl)-1-methylcarbapen-2-em-3-carboxylic acid iodide] | 3.13 µg/mL | 0.05 µg/mL | < 0.025 µg/mL | 0.39 µg/mL | 0.05 µg/mL | 0.1 µg/mL | 0.2 µg/mL | 0.05 µg/mL | 0.05 µg/mL | 0.05 µg/mL | 0.78 µg/mL |  |  |
| C[C@@H](O)[C@H]1C(=O)N2C(C(=O)O)=C(S[C@@H]3CN[C@H](/C=C\c4csc5c[n+](C)cn45)C3)[C@H](C)[C@H]12 [Ex. 39, (1R,5S,6S)-6-((1R)-1-Hydroxyethyl)-1-methyl-2-[(3S,5S)-5-[2(Z)-(6-methylimidazo[5,1-b]thiazolium-3-yl)ethenyl]pyrrolidin-3-yl]thiocarbapen-2-em-3-carboxylic acid chloride] | 6.25 µg/mL | 0.05 µg/mL | < 0.025 µg/mL | 0.39 µg/mL | < 0.025 µg/mL | 0.05 µg/mL | 0.2 µg/mL | 0.05 µg/mL | 0.1 µg/mL | < 0.025 µg/mL | 6.25 µg/mL |  |  |
